The structures appear in SMILES notation.

The test has as its system HCV replicon. In words: Replicon based assay of HCV replication inhibition (NPT ELISA). The format is cell-based, Hepatitis C virus. The following applies: Hepatitis C virus, replicon based assay of HCV replication inhibition; Table IV; read-out: Activity. Put shortly:
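Huh-7 cells carrying a bicistronic HCV replicon (neo, EMCV-IRES-driven NS3–NS5B) treated overnight after seeding with usually 6 concentrations, 10 to 0.03 micromolar, for three days at 37° C without G418. Replication read as NPT level by captured ELISA; matched-DMSO wells and interferon alpha as controls.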
For orientation: A replicon is a self-replicating genome or part of one, used to study replication in cells.
As to `CCCCc1ccc(Nc2nc(-c3cccnc3)cs2)c(C)c1` [compound 900, N-(4-butyl-2-methylphenyl)-4-(pyridin-3-yl)thiazol-2-amine], the EC50 is less than 1 µM. As to `COc1cc(Nc2nc(-c3cccnc3)cs2)cc(OC)c1` [compound 901, N-(3,5-dimethoxyphenyl)-4-(pyridin-3-yl)thiazol-2-amine], the EC50 is 1 to 10 µM.

Take `CCC(C)(C)c1ccc(Oc2ccccc2)c(Nc2nc(-c3cccnc3)cs2)c1` [compound 902, N-(5-tert-pentyl-2-phenoxyphenyl)-4-(pyridin-3-yl)thiazol-2-amine]: the EC50 was less than 1 µM. The value for `COc1cc(-c2ccccc2)c(C)cc1Nc1nc(-c2cccnc2)cs1` [compound 903] was less than 1 µM; that for `O=C(O)c1ccc(Oc2ccc(Nc3nc(-c4cccnc4)cs3)cc2)cc1` [compound 904, 4-(4-(4-(pyridin-3-yl)thiazol-2-ylamino)phenoxy)benzoic acid] was less than 1 µM; that for `Cc1ccc(-c2ccccc2)cc1Nc1nc(-c2cccnc2)cs1` [compound 905] was more than 10 µM. Consider `Cc1cc(C)cc(Nc2nc(-c3cccnc3)cs2)c1` [compound 906, N-(3,5-dimethylphenyl)-4-(pyridin-3-yl)thiazol-2-amine], for which the EC50 was in the range of 1 to 10 µM.

As for `CCOC(=O)/C=C/c1ccc(Nc2nc(-c3cccnc3)cs2)cc1` [compound 907, (E)-ethyl 3-(4-(4-(pyridin-3-yl)thiazol-2-ylamino)phenyl)acrylate], the EC50 was more than 10 µM. The value for `FC(F)(F)c1cccc(Nc2nc(-c3cccnc3)cs2)c1` [compound 908, N-(3-(trifluoromethyl)phenyl)-4-(pyridin-3-yl)thiazol-2-amine] was less than 1 µM; that for `O=C(O)Cc1ccc(Nc2nc(-c3cccnc3)cs2)cc1` [compound 909, 2-(4-(4-(pyridin-3-yl)thiazol-2-ylamino)phenyl)acetic acid] was more than 10 µM; that for `Cc1noc(NS(=O)(=O)c2ccc(Nc3nc(-c4cccnc4)cs3)cc2)c1C` [compound 910] was more than 10 µM. `O=S(=O)(Nc1ccccn1)c1ccc(Nc2nc(-c3cccnc3)cs2)cc1` [compound 911]: the EC50 is more than 10 µM. In the case of `Fc1cc(Nc2nc(-c3cccnc3)cs2)ccc1OCCCCc1ccccc1` [compound 912, N-(4-(4-phenylbutoxy)-3-fluorophenyl)-4-(pyridin-3-yl)thiazol-2-amine], the EC50 is less than 1 µM. As to `CCCCCCCCOc1ccc(Nc2nc(-c3cccnc3)c(C#N)s2)cc1C(F)(F)F` [compound 913, 2-(3-(trifluoromethyl)-4-(octyloxy)phenylamino)-4-(pyridin-3-yl)thiazole-5-carbonitrile], the EC50 was in the range of 1 to 10 µM.

On to `CCCCCCCCOc1ccc(Nc2nc(-c3cccnc3)c(F)s2)cc1C(F)(F)F` [compound 914, 5-fluoro-N-(3-(trifluoromethyl)-4-(octyloxy)phenyl)-4-(pyridin-3-yl)thiazol-2-amine], for which the EC50 is less than 1 µM. For the compound `CCCCCCCCOc1ccc(Nc2nc(-c3csc(C)n3)cs2)cc1C(F)(F)F` [compound 915, N-(3-(trifluoromethyl)-4-(octyloxy)phenyl)-4-(2-methylthiazol-4-yl)thiazol-2-amine], the EC50 was less than 1 µM.

Take `CCCCCCCCOc1ccc(Nc2nc(-c3csc(N)n3)cs2)cc1C(F)(F)F` [compound 916, 4-(2-(3-(trifluoromethyl)-4-(octyloxy)phenylamino)thiazol-4-yl)thiazol-2-amine]: the EC50 was less than 1 µM. As for `CCCCCCCCOc1ccc(Nc2nc(C(=O)CSc3ccccn3)cs2)cc1C(F)(F)F` [compound 917, 1-(2-(3-(trifluoromethyl)-4-(octyloxy)phenylamino)thiazol-4-yl)-2-(pyridin-2-ylthio)ethanone], the EC50 lay in the range of 1 to 10 µM. Consider `CCCCCCCCOc1ccc(Nc2nc(-c3cccnc3)c(Cl)s2)cc1C(F)(F)F` [compound 918, 5-chloro-N-(3-(trifluoromethyl)-4-(octyloxy)phenyl)-4-(pyridin-3-yl)thiazol-2-amine], for which the EC50 is less than 1 µM. Regarding `COc1ncc(-c2csc(Nc3ccc4c(ccn4Cc4ccc(F)cc4)c3)n2)cn1` [compound 919, 1-(4-fluorobenzyl)-N-(4-(2-methoxypyrimidin-5-yl)thiazol-2-yl)-1H-indol-5-amine], the EC50 fell in the range of 1 to 10 µM.

With `c1ccc(CCCOc2ccc(Nc3nc(-c4cccnc4)cs3)cc2)cc1` [compound 920, N-(4-(3-phenylpropoxy)phenyl)-4-(pyridin-3-yl)thiazol-2-amine], the EC50 was less than 1 µM. Consider `c1ccc(CCCCOc2ccc(Nc3nc(-c4cccnc4)cs3)cc2)cc1` [compound 921, N-(4-(4-phenylbutoxy)phenyl)-4-(pyridin-3-yl)thiazol-2-amine], for which the EC50 was less than 1 µM. As for `c1cncc(-c2csc(Nc3ccc(OCCCCc4cccs4)cc3)n2)c1` [compound 922, N-(4-(4-(thiophen-2-yl)butoxy)phenyl)-4-(pyridin-3-yl)thiazol-2-amine], the EC50 was less than 1 µM. In the case of `CCCCCCCCOc1ccc(Nc2nc(-c3cccnc3)c(N)s2)cc1C(F)(F)F` [compound 923, N^2-(3-(trifluoromethyl)-4-(octyloxy)phenyl)-4-(pyridin-3-yl)thiazole-2,5-diamine], the EC50 is less than 1 µM.

As for `FC(F)(F)c1cc(Nc2nc(-c3cccnc3)cs2)ccc1OCCCOc1ccccc1` [compound 924, N-(4-(3-phenoxypropoxy)-3-(trifluoromethyl)phenyl)-4-(pyridin-3-yl)thiazol-2-amine], the EC50 is less than 1 µM. In the case of `O=C(O)Cc1ccc(-c2csc(Nc3ccc(OCCCCc4cccs4)c(C(F)(F)F)c3)n2)s1` [compound 925, 2-(5-(2-(4-(4-(thiophen-2-yl)butoxy)-3-(trifluoromethyl)phenylamino)thiazol-4-yl)thiophen-2-yl) acetic acid], the EC50 is less than 1 µM.

Take `CCOC(=O)Cc1ccc(-c2csc(Nc3ccc(OCCCCc4cccs4)c(C(F)(F)F)c3)n2)s1` [compound 926, ethyl 2-(5-(2-(4-(4-(thiophen-2-yl)butoxy)-3-(trifluoromethyl)phenylamino)thiazol-4-yl)thiophen-2-yl)acetate]: the EC50 was in the range of 1 to 10 µM. The result for `O=C(O)Cc1ccc(-c2csc(Nc3ccc(OCCCCc4ccccc4)c(C(F)(F)F)c3)n2)s1` [compound 927, 2-(5-(2-(4-(4-phenylbutoxy)-3-(trifluoromethyl)phenylamino)thiazol-4-yl)thiophen-2-yl)acetic acid] reads less than 1 µM. Take `CCOC(=O)Cc1ccc(-c2csc(Nc3ccc(OCCCCc4ccccc4)c(C(F)(F)F)c3)n2)s1` [compound 928, ethyl 2-(5-(2-(4-(4-phenylbutoxy)-3-(trifluoromethyl)phenylamino)thiazol-4-yl)thiophen-2-yl)acetate]: the EC50 lay in the range of 1 to 10 µM.

In the case of `O=C(O)Cc1ccc(-c2csc(Nc3ccc(OCCCCc4ccccc4)c(F)c3)n2)s1` [compound 929, 2-(5-(2-(4-(4-phenylbutoxy)-3-fluorophenylamino)thiazol-4-yl)thiophen-2-yl)acetic acid], the EC50 was less than 1 µM. `CCOC(=O)Cc1ccc(-c2csc(Nc3ccc(OCCCCc4ccccc4)c(F)c3)n2)s1` [compound 930, ethyl 2-(5-(2-(4-(4-phenylbutoxy)-3-fluorophenylamino)thiazol-4-yl)thiophen-2-yl)acetate]: the EC50 is 1 to 10 µM.

The values above are taken from patent US8088806B2 (Achillion Pharmaceuticals, Inc., priority 2005, dated 2012).
